# Measured values taken from patent US20220251105A1, “METHODS OF TREATING A MK2-MEDIATED DISORDER” (Celgene CAR LLC, priority 2019, published 2022).
# Read-outs that look alike come from different tables or passages of the source.
# What was measured:
# [1] = system: Imiquimod ear swelling in BALB/c mice; test: imiquimod-induced ear swelling model; format: in vivo, mouse
# [2] = system: cytokines and chemokines produced by ankylosing spondylitis patient cells (TNF-α, IL-17A, MCP-1, IL-6); test: ex vivo cytokine and chemokine production by ankylosing spondylitis patient cells; format: cell-based, human; conditions: ankylosing spondylitis patient cells in vitro
# bone resorption activity = bone resorption activity in vitro; format: cell-based
# [3] = single oral dose pharmacokinetics in cynomolgus monkeys; format: in vivo, cynomolgus monkey
# Description: In vitro and in vivo studies were conducted to characterize the absorption, PK, distribution, and metabolism of Compound 1. […] Additionally, plasma samples from single dose PK studies in mice and monkeys were evaluated for circulating metabolites.
# [4] = toxicokinetics, exploratory 14-day mouse study; format: in vivo; conditions: both sexes, CD-1, mouse, plasma, po, mice, read-out: Mean Day 14 AUC0-last
# Description: A single oral dose study with a 14-day repeat-dose phase was conducted in male and female mice. 250 mg/kg was selected as the highest dose for the repeat dose portion of the study.
# [5] = toxicokinetics, 28-day monkey study; format: in vivo, cynomolgus monkey; conditions: for Cmax / AUC: po; for dose proportionality of systemic exposure (AUCLST): monkeys
# [6] = cynomolgus monkey, plasma, monkey, female, single oral 50 mg/kg
# [7] = cynomolgus monkey, plasma, monkey, female, single oral 150 mg/kg
# [8] = cynomolgus monkey, plasma, monkey, female, single oral 375 mg/kg
# [9] = cynomolgus monkey, plasma, monkey, male, single oral 50 mg/kg
# [10] = cynomolgus monkey, plasma, monkey, male, single oral 150 mg/kg
# [11] = cynomolgus monkey, plasma, monkey, male, single oral 375 mg/kg
structure (smiles),measurement,setting,value
CCOCc1cnc(Cl)nc1Oc1ccc2c(ccc3sc4c(c32)NC[C@@H](C)NC4=O)n1 [Compound 1],% Inhibition by ear thickness clinical score,"[1]; 3 mg/kg, from area under the ear thickness-time curve",57% by ear
same,Minimally Efficacious Dose,[1]; endpoint ear thickness,3 mg/kg
same,"production of cytokines and chemokines incl. TNF-α, IL-17A, MCP-1, IL-6",[2],significantly inhibited
same,bone resorption activity,bone resorption activity,reduce bone resorption activity in vitro
same,bioavailability,"[3]; both sexes, cynomolgus monkey, plasma, po, monkeys, doses in the range 15 to 375 mg/kg",8 to 28%
same,Tmax,"[3]; both sexes, cynomolgus monkey, plasma, monkeys, oral dosing, read-out: time to maximum plasma concentration (tmax)",1 to 6 h
same,AUC,[3]; [6],3810 ng·h/mL
same,AUC(0-inf),[3]; [6],3840 ng·h/mL
same,Cmax,[3]; [6],1040 ng/mL
same,Tmax,"[3]; cynomolgus monkey, plasma, monkey, female, single oral 50 mg/kg, median, read-out: tmax",2 h
same,AUC,[3]; [7],4750 ng·h/mL
same,AUC(0-inf),[3]; [7],4820 ng·h/mL
same,Cmax,[3]; [7],1200 ng/mL
same,Tmax,"[3]; cynomolgus monkey, plasma, monkey, female, single oral 150 mg/kg, median, read-out: tmax",2 h
same,AUC,[3]; [8],22600 ng·h/mL
same,AUC(0-inf),[3]; [8],22700 ng·h/mL
same,Cmax,[3]; [8],2530 ng/mL
same,Tmax,"[3]; cynomolgus monkey, plasma, monkey, female, single oral 375 mg/kg, median, read-out: tmax",6 h
same,AUC,[3]; [9],3680 ng·h/mL
same,AUC(0-inf),[3]; [9],3710 ng·h/mL
same,Cmax,[3]; [9],865 ng/mL
same,Tmax,"[3]; cynomolgus monkey, plasma, monkey, male, single oral 50 mg/kg, median, read-out: tmax",2 h
same,AUC,[3]; [10],8480 ng·h/mL
same,AUC(0-inf),[3]; [10],8590 ng·h/mL
same,Cmax,[3]; [10],1990 ng/mL
same,Tmax,"[3]; cynomolgus monkey, plasma, monkey, male, single oral 150 mg/kg, median, read-out: tmax",1 h
same,AUC,[3]; [11],13900 ng·h/mL
same,AUC(0-inf),[3]; [11],14000 ng·h/mL
same,Cmax,[3]; [11],1890 ng/mL
same,F,"[3]; monkey, female, single oral 50 mg/kg",19%
same,F,"[3]; monkey, female, single oral 150 mg/kg",8%
same,F,"[3]; monkey, female, single oral 375 mg/kg",15%
same,F,"[3]; monkey, male, single oral 50 mg/kg",18%
same,F,"[3]; monkey, male, single oral 150 mg/kg",14%
same,F,"[3]; monkey, male, single oral 375 mg/kg",9%
same,AUC(0-t),[4]; 15 mg/kg/day,4820 ng·h/mL
same,AUC(0-t),[4]; 75 mg/kg/day,16600 ng·h/mL
same,AUC(0-t),[4]; 250 mg/kg/day,35100 ng·h/mL
same,AUC(0-t),"[5]; cynomolgus monkey, plasma, oral, female monkeys, read-out: AUC0-24, steady state exposure at the NOAEL",~7840 ng·h/mL
same,Cmax,"[5]; cynomolgus monkey, plasma, monkey, Study Day 1, male, 375 mg/kg/day",1960 ng/mL
same,Cmax,"[5]; cynomolgus, cynomolgus monkey, plasma, monkey, Study Day 21, female, 375 mg/kg/day",810 ng/mL
same,Cmax,"[5]; cynomolgus, cynomolgus monkey, plasma, monkey, Study Day 21, male, 375 mg/kg/day",2340 ng/mL
same,Cmax,"[5]; female, cynomolgus monkey, plasma, 15 mg/kg/day, monkey, Study Day 1, female, 15 mg/kg/day (so in the source)",862 ng/mL
same,AUC,"[5]; female, cynomolgus monkey, plasma, 15 mg/kg/day, monkey, Study Day 1, female, 15 mg/kg/day (so in the source), read-out: AUCLST",3090 ng·h/mL
same,Cmax,"[5]; female, cynomolgus monkey, plasma, 150 mg/kg/day, monkey, Study Day 1, female, 150 mg/kg/day",1390 ng/mL
same,AUC,"[5]; female, cynomolgus monkey, plasma, 150 mg/kg/day, monkey, Study Day 1, female, 150 mg/kg/day, read-out: AUCLST",6330 ng·h/mL
same,AUC,"[5]; female, cynomolgus monkey, plasma, 150 mg/kg/day, monkey, Study Day 21, female, 150 mg/kg/day, read-out: AUCLST",7840 ng·h/mL
same,AUC,"[5]; female, cynomolgus monkey, plasma, 375 mg/kg/day, monkey, Study Day 1, female, 375 mg/kg/day, read-out: AUCLST",16700 ng·h/mL
same,AUC,"[5]; female, cynomolgus monkey, plasma, 375 mg/kg/day, monkey, Study Day 21, female, 375 mg/kg/day, read-out: AUCLST",4220 ng·h/mL
same,Cmax,"[5]; female, cynomolgus, cynomolgus monkey, plasma, 15 mg/kg/day, monkey, Study Day 21, female, 15 mg/kg/day (so in the source)",818 ng/mL
same,AUC,"[5]; female, cynomolgus, cynomolgus monkey, plasma, 15 mg/kg/day, monkey, Study Day 21, female, 15 mg/kg/day (so in the source), read-out: AUCLST",2460 ng·h/mL
same,Cmax,"[5]; female, cynomolgus, cynomolgus monkey, plasma, 150 mg/kg/day, monkey, Study Day 21, female, 150 mg/kg/day",1620 ng/mL
same,Cmax,"[5]; male, cynomolgus monkey, plasma, 15 mg/kg/day, monkey, Study Day 1, male, 15 mg/kg/day (so in the source)",623 ng/mL
same,AUC,"[5]; male, cynomolgus monkey, plasma, 15 mg/kg/day, monkey, Study Day 1, male, 15 mg/kg/day (so in the source), read-out: AUCLST",1750 ng·h/mL
same,Cmax,"[5]; male, cynomolgus monkey, plasma, 15 mg/kg/day, monkey, Study Day 21, male, 15 mg/kg/day (so in the source)",465 ng/mL
same,Cmax,"[5]; male, cynomolgus monkey, plasma, 150 mg/kg/day, monkey, Study Day 1, male, 150 mg/kg/day",1240 ng/mL
same,AUC,"[5]; male, cynomolgus monkey, plasma, 150 mg/kg/day, monkey, Study Day 1, male, 150 mg/kg/day, read-out: AUCLST",5840 ng·h/mL
same,Cmax,"[5]; male, cynomolgus monkey, plasma, 150 mg/kg/day, monkey, Study Day 21, male, 150 mg/kg/day",674 ng/mL
same,AUC,"[5]; male, cynomolgus monkey, plasma, 375 mg/kg/day, male monkeys (375 mg/kg/day), steady-state, read-out: NOAEL with respect to AUCLST",8790 ng·h/mL
same,AUC,"[5]; male, cynomolgus monkey, plasma, 375 mg/kg/day, monkey, Study Day 1, male, 375 mg/kg/day, read-out: AUCLST",14100 ng·h/mL
same,AUC,"[5]; male, cynomolgus, cynomolgus monkey, plasma, 15 mg/kg/day, monkey, Study Day 21, male, 15 mg/kg/day (so in the source), read-out: AUCLST",1280 ng·h/mL
same,AUC,"[5]; male, cynomolgus, cynomolgus monkey, plasma, 150 mg/kg/day, monkey, Study Day 21, male, 150 mg/kg/day, read-out: AUCLST",3950 ng·h/mL
same,AUC,"[5]; male, cynomolgus, cynomolgus monkey, plasma, 375 mg/kg/day, monkey, Study Day 21, male, 375 mg/kg/day, read-out: AUCLST",8790 ng·h/mL
same,dose proportionality of systemic exposure (AUCLST),"[5]; Day 1, 50 to 375 mg/kg/day",approximately dose-proportional manner
same,dose proportionality of systemic exposure (AUCLST),"[5]; Day 20, 50 to 375 mg/kg/day",less than dose-proportional manner
